Measured values as given in patent US10603357B2, “Therapeutic TREM-1 peptides” (Universite de Lorraine, priority 2004, dated 2020).

What was measured:
Assay type in all cases: in vivo, mouse
[1] = system: BALB/c mice; experiment: endotoxin-induced septic shock in mice, hP5 (Example 5); settings: 200 microliters peptide i.p. at −1 h, 0 h, +4 h, 200 microg LPS i.p., 15 mice per group
Description: Septic shock was induced in male Balb/c mice (n=15/group) with […] of LPS as described in Material and Methods. hP5 peptide or control were administered at the following time points: −1 h, 0 h, +1 h+4 h. Mortality was followed twice a day for 7 days. Data were analysed using GraphPad Prism Survival curve analysis.
For the experiment, male BALB/c mice (19-21 g) were randomly grouped (15 mice per group) and injected intraperitoneally (i.p.) with 200 microg of LPS from E. coli 0111:B4 (Sigma). A blinded investigator performed all injections. 200 microliters of TREM-1 peptides dissolved in water 10% DMSO, 9% Solutol were administered intraperitoneally at −1 h, 0 h, +1 h, +4 h prior and after LPS injection. Viability of treated mice was monitored twice a day for 7 days.

[2] = system: C57BL/6 mice; experiment: Cecal Ligation and Puncture model in mice, hP5 (Example 6); settings: 200 μl i.p. at −1 h, 0 h, +4 h and +24 hours; n=15/group
Description: Mortality was followed twice a day for 10 days. Data were analyzed using GraphPad Prism Survival curve analysis.
For the experiment the mice underwent a standardized preparation for laparotomy (anaesthesia with 2% inhaled isoflurane in oxygen, shaving with animal clippers, alcohol scrub). A 1 cm incision was made on the midline. The cecum was exposed and will be tightly ligated at 50-80% over its base with a 4-0 silk suture avoiding bowel obstruction. The cecum was then punctured once with a 23G needle. The cecum was gently squeezed until feces be just visible through the puncture, and placed again in the abdominal cavity. The incision was thereafter be closed with a 4-0 silk. 200 μl of hP5 or its scrambled peptide control were freshly dissolved in water 10% DMSO, 9% solutol and injected intraperitoneally with a 22 G needle at the following time points: −1, 0, +4, +24. No fluid resuscitation was administered.
Survival and Moribundity were observed twice a day for 10 days.

[3] = system: mice; experiment: DSS colitis model in mice, hP5 (Example 7)
Description: On day 0 of the study, the water supply was removed and replaced with 3% Dextran Sulfate Sodium (DSS) From day 0 to day 6, this solution was the only source of fluids. Water was administered for the rest of the experiment (day 7-11). Healthy controls received water only.
From day 3 to day 10 mice were treated with either hP5, or a sequence-scrambled control peptide. Peptides were dissolved in DMSO at 10 mg/ml and stored at +4° C. Before administration, the stock solution was diluted 1:10 in water 10% Solutol® HS 15 (BASF). Final vehicle concentrations: 1% DMSO, 10% solutol in water. 200 μl of these freshly prepared solutions of hP5, its scrambled control or vehicle were injected intraperitoneally with a 25 G needle.
Animals were weighted daily and monitored on days 3, 4, 5, 6, 7 and 10 for rectal bleeding and stool consistency. For each group, the disease activity index (DAI) was determined by evaluating changes in weight, stool consistency and presence of gross blood during the study, as described below:
To determine the presence of occult blood in stool, a pea-sized stool sample was placed on a slide. Then two drops of reagent (Hemocult Sensa, Beckman Coulter) were placed onto the stool sample on the slide and a change of colour was observed. The presence of occult blood was graded using a score of 0 for no colour; 1 for a very light blue (+/−) colour taking over 30 seconds to appear, 2 for a blue colour developing in […] (+); 3 for an immediate change in colour (++) and 4 for gross blood observable on the slide.
On day 11 mice were euthanized by cervical dislocation to allow colon length evaluation. An incision was done in the abdomen to expose the colon. The stool in the colon was removed flushing with saline. The entire colon from cecum to anus was removed and the length was measured and reported as colon length (cm).
Data were analyzed using Graph Pad Prism. Results are given as means±standard error of the mean. The BW score, stool score and blood score were analyzed using two-way ANOVA test, Bonferroni post test. Colon length was analysed using one-way ANOVA, Dunn's post test. *P≤0.05; **P≤0.01; ***P≤0.001

LQVEDSGLYQCVIYQPP (listed as Homo sapiens) [hP5]
animals alive 7 days after LPS injection [1]: 80%
mice alive at 10 days after CLP [2]: 66.6%
mice surviving at 72 hours after CLP [2]: 73.3%
Disease Activity Index (DAI) score ([3]; 3% DSS day 0-6, peptide i.p. daily from day 3, day 5, mean ± standard error): 1.95±0.170
DAI inhibition compared to DSS+vehicle or DSS+scrambled peptide ([3]; day 5): ~50%
Stool score (stool consistency) ([3]; day 10, mean ± standard error): 0.71±0.474
blood score (haemoccult / gross blood) ([3]; day 10, mean ± standard error): 0.43±0.202
weight loss, expressed as a score ([3]; day 10, mean ± standard error): 2.00±0.436
colon length ([3]; day 11, mean ± standard error): 7.41±0.237 cm
